Assay results as given in ChEMBL document CHEMBL1201862, “PubChem BioAssay data set” (2004).
Active and inactive are the calls of the source.

Legend:
Caspase-6 = target: T1, Caspase-6 (Homo sapiens, UniProt P55212); test: human caspase-6 inhibitors, dose response, biochemical, VEID-R110 fluorescence, cherry-pick (AID 720632)
T1 sequence (P55212 whole entry): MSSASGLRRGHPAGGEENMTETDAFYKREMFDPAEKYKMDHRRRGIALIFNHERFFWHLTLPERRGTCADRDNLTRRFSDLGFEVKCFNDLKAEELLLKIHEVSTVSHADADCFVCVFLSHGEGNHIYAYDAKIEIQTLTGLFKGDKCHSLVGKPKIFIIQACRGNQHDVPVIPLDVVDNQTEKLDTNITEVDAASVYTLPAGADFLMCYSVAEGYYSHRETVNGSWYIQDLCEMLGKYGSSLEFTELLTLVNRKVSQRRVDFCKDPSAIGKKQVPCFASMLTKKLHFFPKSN

[1] = target: Disintegrin and metalloproteinase domain-containing protein 17 (Homo sapiens, UniProt P78536); test: exosite inhibitors of ADAM17, dose response, biochemical (AID 743260)
Chain of Disintegrin and metalloproteinase domain-containing protein 17 (P78536 whole entry, the tested form may be a part): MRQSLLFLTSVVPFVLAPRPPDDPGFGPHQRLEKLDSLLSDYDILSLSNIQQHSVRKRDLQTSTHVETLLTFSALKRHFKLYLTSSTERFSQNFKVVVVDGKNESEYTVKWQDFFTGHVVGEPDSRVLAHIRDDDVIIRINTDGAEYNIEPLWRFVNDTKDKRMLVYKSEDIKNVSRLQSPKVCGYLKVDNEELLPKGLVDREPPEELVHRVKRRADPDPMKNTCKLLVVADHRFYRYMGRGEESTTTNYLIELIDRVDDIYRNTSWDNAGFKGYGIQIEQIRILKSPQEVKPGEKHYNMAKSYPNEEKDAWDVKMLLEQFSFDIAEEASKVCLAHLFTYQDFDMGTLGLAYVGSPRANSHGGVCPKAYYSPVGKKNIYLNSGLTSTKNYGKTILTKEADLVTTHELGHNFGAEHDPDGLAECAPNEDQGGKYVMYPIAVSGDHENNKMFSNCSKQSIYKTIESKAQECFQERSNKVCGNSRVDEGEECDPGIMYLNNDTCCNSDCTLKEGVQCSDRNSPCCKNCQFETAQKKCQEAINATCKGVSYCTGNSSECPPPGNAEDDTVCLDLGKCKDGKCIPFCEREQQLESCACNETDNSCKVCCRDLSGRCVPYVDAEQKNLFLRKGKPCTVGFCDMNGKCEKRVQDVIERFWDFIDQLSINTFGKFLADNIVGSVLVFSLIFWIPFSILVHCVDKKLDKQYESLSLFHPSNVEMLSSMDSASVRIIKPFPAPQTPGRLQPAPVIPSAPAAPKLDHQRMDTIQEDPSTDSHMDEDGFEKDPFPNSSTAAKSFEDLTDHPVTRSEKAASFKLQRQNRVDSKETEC

[2] = ADAM10 protease inhibitors, dose response, selectivity assay for ADAM17 exosite inhibitor project, biochemical, FRET peptide substrate, recombinant human ADAM10 (AID 743259);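 further: ADAM10 enzyme cleaving a FRET peptide substrate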
[3] = target: NAD-dependent protein deacylase sirtuin-5, mitochondrial (Homo sapiens, UniProt Q9NXA8); test: SIRT5 desuccinylase inhibitors, dose response, biochemical, fluorescence imaging, cherry-pick, set 5 (AID 720591);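 further: desuccinylation of succinyl peptide AMC substrate read as fluorescence after trypsin release; potency of inhibitors that lower fluorescence and may act on trypsin instead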
Chain of NAD-dependent protein deacylase sirtuin-5, mitochondrial (Q9NXA8 whole entry, the tested form may be a part): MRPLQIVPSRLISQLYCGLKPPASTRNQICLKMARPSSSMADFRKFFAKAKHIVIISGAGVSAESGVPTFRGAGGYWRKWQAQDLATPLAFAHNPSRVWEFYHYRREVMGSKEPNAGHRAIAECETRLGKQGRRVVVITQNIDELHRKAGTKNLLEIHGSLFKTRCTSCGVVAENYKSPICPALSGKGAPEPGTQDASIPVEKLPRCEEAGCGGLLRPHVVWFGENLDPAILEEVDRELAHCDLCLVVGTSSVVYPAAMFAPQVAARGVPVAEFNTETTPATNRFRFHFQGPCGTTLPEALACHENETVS

[4] = target: T2, RNA-binding protein pos-1 (Caenorhabditis elegans, UniProt G5EF15); test: inhibitors of POS-1/mex-3 RNA binding, dose response, biochemical, fluorescence polarization (AID 1964);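 further: purified POS-1 fused to maltose binding protein made in E. coli; potency of compounds blocking POS-1 binding to fluorescent RNA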
T2 sequence (G5EF15 whole entry): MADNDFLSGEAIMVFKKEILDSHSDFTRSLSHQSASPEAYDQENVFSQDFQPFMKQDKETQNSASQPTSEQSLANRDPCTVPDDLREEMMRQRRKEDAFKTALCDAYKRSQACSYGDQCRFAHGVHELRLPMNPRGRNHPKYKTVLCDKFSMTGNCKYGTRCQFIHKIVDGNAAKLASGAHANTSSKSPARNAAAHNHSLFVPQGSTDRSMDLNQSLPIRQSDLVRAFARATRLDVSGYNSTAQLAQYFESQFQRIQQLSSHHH

Nonstructural protein 1 = Nonstructural protein 1 (Influenza A virus, UniProt Q194T2); assay type: functional, Influenza A virus (A/California/07/2009(H1N1))
Chain of Nonstructural protein 1 (Q194T2 whole entry): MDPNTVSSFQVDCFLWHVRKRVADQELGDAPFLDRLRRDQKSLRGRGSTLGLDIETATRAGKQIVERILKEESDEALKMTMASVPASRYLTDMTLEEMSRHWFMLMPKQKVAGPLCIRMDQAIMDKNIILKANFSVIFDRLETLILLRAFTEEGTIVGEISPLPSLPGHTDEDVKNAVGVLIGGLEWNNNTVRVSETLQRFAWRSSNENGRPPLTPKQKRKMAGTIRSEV

Genome polyprotein = Genome polyprotein (dengue virus type 2, UniProt P29990); test: Dengue-2 NS5 methyltransferase inhibitors, primary screen, biochemical, confirmation dose response (AID 588689); assay type: functional
Chain of Genome polyprotein (P29990 2492-3391 limits assumed): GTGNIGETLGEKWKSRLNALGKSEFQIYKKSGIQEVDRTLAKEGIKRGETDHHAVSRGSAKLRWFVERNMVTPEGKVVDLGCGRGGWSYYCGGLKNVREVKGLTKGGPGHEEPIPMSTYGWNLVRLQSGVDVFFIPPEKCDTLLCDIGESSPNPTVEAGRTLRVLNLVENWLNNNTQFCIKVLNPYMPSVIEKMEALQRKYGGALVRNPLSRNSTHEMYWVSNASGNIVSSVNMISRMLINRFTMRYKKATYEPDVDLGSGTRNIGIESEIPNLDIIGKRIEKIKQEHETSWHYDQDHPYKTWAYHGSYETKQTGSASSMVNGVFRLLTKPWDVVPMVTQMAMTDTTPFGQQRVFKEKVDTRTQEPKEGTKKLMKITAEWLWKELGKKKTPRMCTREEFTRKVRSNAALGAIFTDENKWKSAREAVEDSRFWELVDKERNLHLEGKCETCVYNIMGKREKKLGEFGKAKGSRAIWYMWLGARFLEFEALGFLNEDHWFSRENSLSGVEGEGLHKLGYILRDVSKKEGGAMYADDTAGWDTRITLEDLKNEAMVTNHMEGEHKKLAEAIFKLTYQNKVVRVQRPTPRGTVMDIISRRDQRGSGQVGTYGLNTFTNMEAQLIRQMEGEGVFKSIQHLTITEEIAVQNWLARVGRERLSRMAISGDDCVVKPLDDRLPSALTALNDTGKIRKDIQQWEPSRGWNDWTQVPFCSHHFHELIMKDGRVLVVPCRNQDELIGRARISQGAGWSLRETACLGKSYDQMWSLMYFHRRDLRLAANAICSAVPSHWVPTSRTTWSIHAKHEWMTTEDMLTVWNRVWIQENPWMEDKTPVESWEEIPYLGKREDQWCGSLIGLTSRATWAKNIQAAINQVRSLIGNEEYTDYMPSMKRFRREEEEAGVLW

[5] = target: T3, Oxysterols receptor LXR-beta (Homo sapiens, UniProt P55055); assay type: functional, cell-based;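 further: agonist activity at LXR measured by a cell-based luminescence readout across a dose range, run as a counterscreen for daf-12 agonists; HEK293 cells with Gal4-LXR fusion and GAL4-driven luciferase reporter; potency for activation of Gal4-LXR reporter so compounds are agonists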
T3 sequence (P55055 whole entry): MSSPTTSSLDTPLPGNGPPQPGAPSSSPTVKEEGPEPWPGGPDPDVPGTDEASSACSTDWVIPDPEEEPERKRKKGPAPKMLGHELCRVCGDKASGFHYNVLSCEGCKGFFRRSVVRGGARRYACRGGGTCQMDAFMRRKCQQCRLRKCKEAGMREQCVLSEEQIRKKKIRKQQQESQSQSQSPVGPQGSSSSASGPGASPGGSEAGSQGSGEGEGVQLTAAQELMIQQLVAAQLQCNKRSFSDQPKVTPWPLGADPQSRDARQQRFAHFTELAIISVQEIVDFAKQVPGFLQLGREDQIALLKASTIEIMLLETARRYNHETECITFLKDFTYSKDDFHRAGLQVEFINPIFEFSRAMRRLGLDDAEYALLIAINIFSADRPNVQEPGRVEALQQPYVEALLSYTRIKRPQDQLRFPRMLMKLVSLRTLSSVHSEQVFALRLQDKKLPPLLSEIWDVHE

[6] = NIH-3T3 fibroblast cytotoxicity, dose response, cytotoxicity control, cell-based, fluorescence, Alamar Blue, secondary assay (AID 2327); assay type: functional;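 further: NIH-3T3 mouse fibroblasts cultured with fluconazole at 8 µg/mL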
[7] = C. albicans growth with fluconazole, confirmation, fluorescence, retest (AID 2467); assay type: functional, cell-based
[8] = inhibitors of Vif binding to APOBEC3G peptide, primary screen, biochemical, TR-FRET, GST-Vif 1-94, biotin-A3G peptide, dose response retest (AID 1117319); assay type: functional;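 further: TR-FRET signal of purified GST-Vif binding a biotinylated A3G peptide; inhibitors lower the FRET signal by blocking Vif and A3G binding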
[9] = inhibitors of PGC1a acetylation in cells, dose response, cell-based, cherry-picked samples (AID 720514); assay type: functional;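 further: potency may reflect raised or lowered acetylation signal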
[10] = target: FAD-linked sulfhydryl oxidase ALR (Homo sapiens, UniProt P55789); test: inhibitors of human ALR sulfhydryl oxidase, dose response, biochemical, H2O2 detection, luminescence, cherry-pick (AID 493248)
Chain of FAD-linked sulfhydryl oxidase ALR (P55789 whole entry, the tested form may be a part): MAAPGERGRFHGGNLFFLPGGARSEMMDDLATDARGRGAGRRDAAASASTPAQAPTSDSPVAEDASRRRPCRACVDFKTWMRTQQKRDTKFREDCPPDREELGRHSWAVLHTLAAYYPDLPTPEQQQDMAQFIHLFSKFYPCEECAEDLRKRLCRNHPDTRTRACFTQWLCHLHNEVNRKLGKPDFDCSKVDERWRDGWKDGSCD

[11] = target: T4, Carboxy-terminal domain RNA polymerase II polypeptide A small phosphatase 1 (Homo sapiens, UniProt Q9GZU7); test: inhibitors of CTDSP1, concentration-response testing, biochemical assay, absorbance-based, actives from ultra-high-throughput screening (AID 540297); assay type: functional
T4 sequence (Q9GZU7 whole entry): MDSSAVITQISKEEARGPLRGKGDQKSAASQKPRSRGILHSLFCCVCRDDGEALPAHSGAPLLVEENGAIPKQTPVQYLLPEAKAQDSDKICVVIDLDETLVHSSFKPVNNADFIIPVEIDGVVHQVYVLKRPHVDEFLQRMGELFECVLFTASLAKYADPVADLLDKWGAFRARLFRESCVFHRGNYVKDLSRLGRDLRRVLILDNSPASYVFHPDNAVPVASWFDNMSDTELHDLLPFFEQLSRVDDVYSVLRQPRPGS

[12] = target: Luciferin 4-monooxygenase (Photinus pyralis, UniProt P08659); test: firefly luciferase enzyme inhibitors, dose response, biochemical, luminescence (AID 1891)
Chain of Luciferin 4-monooxygenase (P08659 whole entry): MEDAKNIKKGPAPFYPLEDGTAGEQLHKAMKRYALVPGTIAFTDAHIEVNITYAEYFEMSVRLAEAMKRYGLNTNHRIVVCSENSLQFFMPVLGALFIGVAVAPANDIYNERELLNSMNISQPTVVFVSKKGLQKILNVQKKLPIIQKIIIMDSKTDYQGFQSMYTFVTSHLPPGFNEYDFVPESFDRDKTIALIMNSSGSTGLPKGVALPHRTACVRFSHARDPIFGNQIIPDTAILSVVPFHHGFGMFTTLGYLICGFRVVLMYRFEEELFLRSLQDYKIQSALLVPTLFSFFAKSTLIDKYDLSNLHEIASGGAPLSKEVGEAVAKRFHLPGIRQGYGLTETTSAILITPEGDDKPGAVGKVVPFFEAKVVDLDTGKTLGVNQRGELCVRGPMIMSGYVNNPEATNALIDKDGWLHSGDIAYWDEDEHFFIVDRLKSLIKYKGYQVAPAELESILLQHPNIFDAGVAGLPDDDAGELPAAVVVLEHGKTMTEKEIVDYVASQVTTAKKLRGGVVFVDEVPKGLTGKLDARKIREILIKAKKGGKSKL

[13] = Luminescence Cell-Based Dose Confirmation HTS to Identify Inhibitors of Platelet Dense Granule Release. [Related pubchem assays: 1663 (Primary HTS), 1678 (Summary of Project)]; assay type: functional
cells [14] = assay type: functional, cell-based
cells [15] = assay type: functional, cell-based; remark: listed apart in the source
[16] = inhibitors of firefly luciferase expression or activity, dose response, H4 neuroglioma cells, luminescence (AID 1990); assay type: functional, cell-based
[17] = Luminescence Cell-Based Dose Response HTS to Identify Inhibitors of 5'UTR Stem-Loop Driven Prion Protein mRNA Translation in H4 Neuroglioblastoma Cells. [Related pubchem assays: 1827 (Project Summary), 1813 (Primary HTS)]; assay type: functional
[18] = inhibitors of SNCA 5'UTR-driven reporter translation, confirmation, H4 neuroglioma cells, luminescence (AID 1988); assay type: functional, cell-based
[19] = THP-1 cell cytotoxicity, dose response, cytotoxicity control for non-replicating M. tuberculosis project (AID 489025); assay type: functional
[20] = HepG2 cell cytotoxicity, dose response, cytotoxicity control for non-replicating M. tuberculosis project (AID 489018); assay type: functional; conditions: Mycobacterium tuberculosis
[21] = Vero E6 cell cytotoxicity, dose response, cytotoxicity control for non-replicating M. tuberculosis project, secondary assay (AID 492998); assay type: functional, VeroE6; conditions: Vero C1008
cells [22] = assay type: functional
INS1 = test: beta cell apoptosis inhibitors, cytokine rescue, dose response, luminescence, retest (AID 449756); assay type: functional, cell-based; conditions: Rattus norvegicus;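 further: cell death triggered by IL-1 beta plus TNF-alpha plus IFN-gamma mixture; protective hits raise ATP signal compared with cytokine alone wells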
[23] = A549 cell cytotoxicity, dose response, cytotoxicity control, plate reader, cherry-pick, antagonist series (AID 743412); assay type: functional, cell-based
[24] = HepG2 cell cytotoxicity, dose response, cytotoxicity control, plate reader, cherry-pick, antagonist series (AID 743416); assay type: functional, cell-based
[25] = LGR2 antagonists, dose response, cell-based, HEK293, CRE-luciferase reporter, cherry pick, set 2 (AID 743343); assay type: functional;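 further: transfected cells were stimulated with diluted bursicon conditioned medium after compound addition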
[26] = HEp-2 cell cytotoxicity, dose response, cytotoxicity control for RSV inhibitor project, HTS (AID 2410); assay type: functional; conditions: human respiratory syncytial virus
[27] = HEK293T cytotoxicity, dose response, cytotoxicity control for miR-122 modulator project, cell-based, activator set, cherry-pick (AID 720690); assay type: functional;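 further: HEK293T human cells scored for general mammalian cytotoxicity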
[28] = Luminescence Cell-Based Dose Response to Identify Activators of 5'UTR Stem-Loop Driven Prion Protein mRNA Translation in H4-C Neuroglioblastoma Cells. [Related pubchem assays: 1829 (Project Summary), 1814 (Primary HTS)]; assay type: functional
[29] = Luminescence Cell-Based Dose Response HTS to Identify Activators of Luciferase Translation or Activity in H4 […] Cells. [Related pubchem assays: 1829 (Project Summary), 1814 (Primary HTS)]; assay type: functional
[30] = Luminescence Cell-Based Dose Response to Identify Activators of Luciferase Translation or Activity in H4-C Neuroglioblastoma Cells. [Related pubchem assays: 1829 (Project Summary), 1814 (Primary HTS)]; assay type: functional
[31] = Luminescence Cell-Based Dose Confirmation to Identify Activators of 5'UTR Stem-Loop Driven Alpha-Synuclein mRNA Translation in H4 Neuroglioblastoma Cells. [Related pubchem assays: 1829 (Project Summary), 1814 (Primary HTS)]; assay type: functional
[32] = Shn3 3'UTR reporter inhibitors, dose response, cell-based, Clone20 osteoblasts, firefly luciferase, cherry-picked (AID 624132); assay type: functional;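 further: firefly luciferase luminescence from reporter carrying the Shn3 3'UTR in osteoblasts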
[33] = HepG2 cell cytotoxicity, dose response, cytotoxicity control for Shn3 inhibitor project, CellTiter-Glo, cherry-picked (AID 624134); assay type: functional, cell-based
[34] = human group III sPLA2 inhibitors, dose response, biochemical, QFRET, IC50 (AID 743457);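 further: green fluorescence rise as the enzyme cleaves BODIPY PC-A2 in liposomes; potency for inhibition of the enzyme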

## CN(c1ccc(OCC(=O)Nc2cc(Cl)ccc2C(=O)O)cc1)S(=O)(=O)c1ccc(F)cc1
Caspase-6
  AC50: 27.2 µM (active)

## COc1cc(NC(=O)C/C(C)=N/NC(=O)Cc2ccccc2)c(OC)cc1Cl
[1]
  IC50: > 69.5 µM (inactive)
[2]
  IC50: > 69.5 µM (inactive)

## CC(C(=O)Nc1ccc(S(=O)(=O)N2CCOCC2)cc1)N1CCN(c2ccccn2)CC1 (configuration not stated)
[3]
  AC50: > 30 µM (inactive)

## Oc1ccc(/C=N/Nc2ccc(Cl)nn2)c(O)c1O
[4]
  EC50: 50 µM (inconclusive)
Nonstructural protein 1
  IC50: 2.08 µM (active)
Genome polyprotein
  IC50: 16.4 µM (active)
Caspase-6
  AC50: 1.1 µM (active)

## O=C(O)c1ccc(Nc2nc(-c3ccccc3)nc3ccccc23)cc1
[3]
  AC50: 17.9 µM (active)

## O=c1c2ccccc2cnn1-c1ccc2ccccc2c1
[5]
  EC50: > 67.5 µM (inactive)

## Cc1cccc(C(=N)NOC(=O)c2cccs2)c1
[5]
  EC50: > 67.5 µM (inactive)

## CC(=O)c1c(C)[nH]c(C(=O)Nc2ccc(C)c(C)c2)c1C
[6]
  EC50: 72.3 µM (active)
[7]
  EC50: > 38 µM (not active)
[8]
  IC50: > 100 µM (active)

## COc1cc(/C=C(\C#N)c2nc3ccccc3[nH]2)c([N+](=O)[O-])cc1OCc1ccccc1
[8]
  IC50: > 100 µM (active)

## COc1ccc(-n2c(SCC#N)nnc2-c2cccnc2)cc1
[9]
  AC50: 16.7 µM (active)

## CSc1ccc(NC(=O)Nc2ccc(C(=O)NCC(=O)O)cc2)cc1
[10]
  AC50: 2.47 µM (active)
[11]
  IC50: 3.17 µM (active)
Caspase-6
  AC50: 18.4 µM (active)

## COC(=O)C1=C(c2ccccc2OCc2ccccc2)C[C@@H]2CC[C@H]1N2C(=O)NCc1ccc(Cl)cc1
[1]
  IC50: > 69.5 µM (inactive)
[2]
  IC50: > 7.72 µM (active)

## COc1ccc(NS(=O)(=O)c2cccc(C(=O)N3CCCC(C)C3)c2)cc1 (configuration not stated)
[3]
  AC50: 28.4 µM (active)

## c1ccc(Nc2ccccn2)cc1
[8]
  IC50: > 100 µM (active)

## CCC(NCCc1ccccc1)=C1C(=O)NC(=O)NC1=O
[12]
  EC50: > 112 µM (not active)
[13]
  EC50: 14.5 µM (active)
Cells [14]
  IC50: > 29.9 µM (inactive)
Cells [15]
  EC50: > 29.9 µM (inactive)

## C[C@H]1CN([C@@H](C)CO)S(=O)(=O)c2ccc(-c3ccccc3)cc2O[C@@H]1CN(C)Cc1cccc(F)c1
[9]
  AC50: 7.93 µM (active)

## CC(C)c1ccc2c(c1)C(N1CCNCC1)Cc1ccc(F)cc1S2 (configuration not stated)
[6]
  EC50: > 150 µM (inactive)
[16]
  EC50: > 120 µM (not active)
[17]
  EC50: 25.7 µM (active)
[18]
  EC50: 11.6 µM (active)
[7]
  EC50: > 38 µM (not active)
[19]
  CC50: 16.3 µM (active)
[20]
  CC50: 18.1 µM (active)
[21]
  CC50: 12.3 µM (active)
Cells [22]
  IC50: 14.2 µM (active)
INS1
  AC50: 6.71 µM (active)
[23]
  AC50: 6.71 µM (active)
[24]
  AC50: 7.87 µM (active)
[25]
  AC50: 38.2 µM (active)

## COc1ccc2c(c1)C(C)=CC(C)(C)N2C(=O)CNCc1ccc2c(c1)OCO2
[26]
  CC50: > 50 µM (active)
[27]
  AC50: 40.4 µM (active)

## CCOC(=O)c1cnc(SCc2ccccc2)nc1N
[28]
  EC50: 0.342 µM (active)
[29]
  EC50: < 0.1 µM (active)
[30]
  EC50: 0.278 µM (active)
[31]
  EC50: 0.23 µM (active)
[5]
  EC50: > 67.5 µM (inactive)

## CC(C)CC(NC(=O)c1ccc(Cl)cc1)C(=O)OCC(=O)c1ccc2c(c1)NC(=O)CO2 (configuration not stated)
[16]
  EC50: 6.2 µM (active)
[17]
  EC50: 2.69 µM (active)
[18]
  EC50: 4.38 µM (active)
[32]
  AC50: 4.01 µM (active)
[33]
  AC50: 15.5 µM (active)
[9]
  AC50: 6.45 µM (active)

## Cc1ccc(NC(=O)C(OC(=O)c2cc(C)oc2C)c2ccccc2)cc1 (configuration not stated)
[1]
  IC50: > 69.5 µM (inactive)
[2]
  IC50: 24.5 µM (inactive)

## O=C(NNC(=S)NC1CCCCC1)c1ccccc1Cl
[34]
  IC50: > 122 µM (inactive)
